Experimental data from patent US5426106A, “Pyrrolo-pyridazinone derivatives” (Merck Sharp & Dohme Limited, priority 1992, dated 1995).

What was measured:
NMDA receptors = experiment: Cortical slice studies, responses to NMDA in rat cortical slice; format: cell-based; conditions: from righthand shift in NMDA concentration-response curves, read-out: apparent equilibrium constant (Kb) in response to NMDA
Source text: (§1) The compounds useful in this invention potently and selectively block responses to NMDA and/or AMPA in a brain slice from rat cortex, and inhibit the binding of agonists and antagonists to the strychnine-insensitive site present on the NMDA receptor and/or AMPA binding to rat forebrain membranes.
The effects of compounds of the invention on responses to NMDA and AMPA can be assessed using the rat cortical slice as described by Wong et al., Proc. Natl. Acad. Sci. USA, 1986, 83, 7104. The apparent equilibrium constant (Kb) is calculated from the righthand shift in the NMDA or AMPA concentration-response curves produced by the compound under test.

[1] = target: T1, strychnine-insensitive site present on the NMDA receptor (Rattus norvegicus, UniProt P35439); experiment: Displacement of 3H-L-689,560 binding to the strychnine-insensitive site of rat forebrain membranes; conditions: 3H-L-689,560, rat forebrain membranes; read-out: concentration required to displace 50% of the specific binding (IC50)
T1 construct: NMDA receptor of rat forebrain membranes; from tissue; host or cells: rat forebrain membranes
Source text: as §1
The ability of test compounds to displace ^3 H-L-689,560 (trans-2-carboxy-5,7-dichloro-4-phenylaminocarbonylamino-1,2,3,4-tetrahydroquinoline) binding to the strychnine-insensitive site present on the NMDA receptor of rat forebrain membranes can be determined by the method of Grimwood et al., Proceedings of The British Pharmacological Society, July 1991, Abstract C78.

- IC50 [1]: < 50 µM
SMILES: O=c1[nH]n2cccc2c(O)c1-c1ccccc1 [Example 1, 4-Hydroxy-3-phenylpyrrolo[1,2-b]pyridazin-2(1H)-one]
- Kb (NMDA receptors): < 150 µM
